Measurements from US20120211373A1, “MICROFLUIDIC SYSTEM FOR MEASURING CELL BARRIER FUNCTION” (THE REGENTS OF THE UNIVERSITY OF MICHIGAN, priority 2011, published 2012).

Key:
b.END.3 cell monolayer = assay: TEER / impedance of b.END.3 cell monolayer after chemical treatment in microfluidic chip; type: cell-based, mouse
Description: Cell Seeding and Culture. Epithelial (MDCK-2) and endothelial (b.END.3) cell lines were selected because they offered well characterized and accepted TEER values to compare with the experimental results. […] All cell lines were cultured in endothelial growth media (DMEM with 10% fetal bovine serum and 1% penicillin/streptomycin) prior to seeding in the microfluidic chip. The microfluidic chip was exposed to plasma oxygen for 5 min to make hydrophilic. Prior to cell seeding, fibronectin solution (Invitrogen) at a concentration of 100 μg/mL in phosphate buffered saline (PBS) was injected into the upper (endothelial) channel to promote cell adhesion. The lower channel was preloaded with growth media. […]
Resolving TEER from Circuit Model. In order to resolve the TEER value from the experimental impedance spectra, the control impedance spectra (taken from the same chip just before cell seeding) was subtracted from the measured impedance spectra (with cells) to eliminate the effect from electrolyte, membrane, and electrode-electrolyte interfaces and simplify the analysis. […]

b.End3 monolayers = assay: Paracellular permeability across b.End3 monolayers in transwells and layered microfluidic devices
Description: The permeability of [^14C]-mannitol as a function of days across b.End3 cells cultured in transwells and layered microfluidic channels was measured. […] Consequently, mannitol has been routinely used to assess the paracellular permeability of epithelial and endothelial monolayers.
Permeability experiments were performed at 3, 6, 9, 12, 15, 18, and 21 days in culture for all three marker molecules with five replicates for both the transwells and the layered microfluidic devices. Briefly, cells grown in both the transwells and the layered microfluidic devices under static condition were removed from the incubator and washed twice by replacing culture medium with PBS solution. PBS solutions were then aspirated and replaced by the designated solution with radioactively labeled marker molecules at the apical (top) compartment. All transwells and layered microfluidic devices were then placed onto the shaker at 100 rpm inside the incubator at 37° C., 95% air, and 5% CO2 for a total of 60 minutes. At every 10 minute interval, the transwells and the layered microfluidic devices were taken out of the incubator; the PBS solutions from the basolateral compartments were collected and replaced by fresh PBS solutions. At the end of the 1 hour incubation time, the solutions in both the apical and basolateral compartments were collected. All the samples collected during the experiments were measured using liquid scintillation counter which evaluates the radioactivity of each sample in the unit of count per minute (CPM). CPMs from all samples are then converted into concentration using the standard dilution scheme.
The permeability of a given molecule across the monolayer was calculated by suing a derived form of a differential equation based on Fick's Law: […]
The unit of measurement cm/s for permeability coefficient is commonly used.

Row | Molecule | impedance of the entire system following treatment (b.END.3 cell monolayer; all frequency points, 30 min, 0.1% in DMEM) | TEER (paracellular resistance) after treatment (b.END.3 cell monolayer; b.END.3 monolayer treated 30 min with 0.1% in DMEM, before treatment 161.51±0.755 Ωcm^2) | lower permeability in layered microfluidic channels compared to transwells (b.End3 monolayers; Example 2, b.End3, as a function of days in culture (FIG. 11)) [fold] | lower permeability across b.End3 monolayers in layered microfluidic devices compared to transwells (b.End3 monolayers; Example 5, after 9 days in culture (FIG. 11A)) [fold] | permeability relative to the large markers in layered microfluidic devices (size selectivity) (b.End3 monolayers; day 3 and day 6 in culture (FIG. 11E))
1 | TritonX-100 | decreased significantly | 39.73±1.925 Ωcm^2 |  |  | 
2 | OC[C@@H](O)[C@@H](O)[C@H](O)[C@H](O)CO [[^14C]-mannitol, [^14C]-D-Mannitol] |  |  | 15 | 10 | higher permeability
